Measurements as given in article PMC10388362, “Fluorescent Ligands Enable Target Engagement Studies for the Intracellular Allosteric Binding Site of the Chemokine Receptor CXCR2” (Journal of Medicinal Chemistry, 2023).

Legend:
CXCR2 [1] = target: T1, CXCR2 (Homo sapiens, UniProt P25025); test: Membrane-based NanoBRET saturation assay (CXCR2_Nluc membranes); assay type: binding; conditions: cell-free, membranes from HEK293T cells transiently expressing CXCR2_Nluc; read-out: Kd (equilibrium saturation binding)
T1 construct: Promega pNLF1-C (Nluc) #CXCR20TN00; host or cells: HEK293T, transient transfection (PEI)
T1 sequence (P25025 1-360): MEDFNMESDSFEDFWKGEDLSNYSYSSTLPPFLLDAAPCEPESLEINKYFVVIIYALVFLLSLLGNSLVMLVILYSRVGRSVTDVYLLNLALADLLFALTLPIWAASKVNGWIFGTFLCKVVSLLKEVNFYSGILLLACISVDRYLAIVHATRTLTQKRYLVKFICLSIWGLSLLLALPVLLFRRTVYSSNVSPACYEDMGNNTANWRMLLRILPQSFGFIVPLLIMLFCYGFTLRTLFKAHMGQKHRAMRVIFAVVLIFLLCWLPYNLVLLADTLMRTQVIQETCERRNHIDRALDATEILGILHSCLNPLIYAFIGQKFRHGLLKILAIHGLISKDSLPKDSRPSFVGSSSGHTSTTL
Protocol: Membranes from HEK293T cells transiently expressing the respective GPCR were prepared as follows. The medium of the transfected cells was refreshed after 24 h before cells were harvested 48 h post-transfection. The growth medium was removed, and the cells were carefully washed with cold phosphate-buffered saline (10 mL per Ø 15 cm dish). The cells were detached with 15 mL of ice-cold Tris-EDTA buffer (10 mM Tris, 0.5 mM EDTA, 5.4 mM KCl, 140 mM NaCl, pH 7.4) and subsequently centrifuged with 218g for 8 min. The supernatant was removed and the cells were resuspended in 10 mL of Tris-EDTA buffer. The cells were lysed with an Ultraturrax (20,000 rpm) used five times for 5 s with a 25 s break on ice in between. The lysate was centrifuged at 50,830g for 18 min at 4 °C. The supernatant was discarded, and the pellet was homogenized in a membrane buffer (50 mM Tris, 1 mM EDTA, 5 mM MgCl2, 100 μg/mL bacitracin, 5 μg/mL soybean trypsin inhibitor, pH 7.4) with a glass-teflon homogenizer. Aliquots of 250 μL were shock-frozen in liquid nitrogen and directly stored at −80 °C. Finally, the protein concentration was determined using the Lowry method.[43]
(§1) For the establishment of our NanoBRET binding assay, we referred to a recently published protocol.[45] The fluorescent ligands (9a–c) were dissolved in DMSO (1 mM) and further diluted to varying concentrations in an assay buffer (50 mM Na2HPO4, 50 mM KH2PO4, pH 7.4, 1 mg/mL saponin, 5% FBS) and 5 μL of these dilutions were pipetted to a 384-well plate. To determine the total binding, 5 μL of the assay buffer was added to the corresponding wells, while 5 μL of a solution of 3 in the assay buffer (final assay concentration: 1 μM) was used to determine nonspecific binding. Then, 20 μL of the membrane preparations diluted in the assay buffer (2 μg total protein/well) were added and the plates were incubated for 90 min at 37 °C. Subsequently, 5 μL of a furimazine solution (Promega, Mannheim, Germany, final assay dilution: 1:5000) was added to each well (final assay volume: 35 μL) before measuring luminescence with a CLARIOstar microplate reader using 620/10 and 475/30 nm emission filters after 5 min of incubation in the dark. Bioluminescence resonance energy transfer (BRET) was determined as the ratio of acceptor fluorescence and donor luminescence. The algorithms for one-site saturation binding from PRISM9.5 (GraphPad) were utilized to analyze total, nonspecific, and specific binding. Specific binding signals were calculated as a difference of total and nonspecific binding. If required, netBRET values were calculated as the difference between total BRET values and the values obtained in the absence of a fluorescent ligand. For selectivity studies with CCR2, CCR7, CCR9, and CXCR1, we modified the procedure described above.

CCR2 = target: T2, CCR2 (Homo sapiens, UniProt P41597); test: Membrane-based NanoBRET saturation assay, selectivity (CCR2_GSSG_Nluc membranes)
T2 construct: host or cells: HEK293T; membrane preparation
T2 sequence (P41597 1-360 isoform P41597-2): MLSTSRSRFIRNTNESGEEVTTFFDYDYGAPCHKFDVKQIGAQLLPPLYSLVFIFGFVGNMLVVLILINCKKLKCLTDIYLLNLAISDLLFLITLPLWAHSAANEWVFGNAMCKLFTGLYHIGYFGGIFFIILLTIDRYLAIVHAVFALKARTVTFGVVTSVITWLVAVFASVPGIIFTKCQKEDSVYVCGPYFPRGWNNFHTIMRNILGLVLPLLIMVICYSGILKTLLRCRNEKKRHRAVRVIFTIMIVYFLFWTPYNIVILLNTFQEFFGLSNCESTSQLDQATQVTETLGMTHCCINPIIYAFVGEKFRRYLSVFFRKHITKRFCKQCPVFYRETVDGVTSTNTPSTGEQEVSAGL
Protocol: as §1, with “The algorithms for one-site saturation binding from PRISM9.5 (GraphPad) were utilized to analyze total, nonspecific, and specific binding.” left out, “For selectivity studies with CCR2, CCR7, CCR9, and CXCR1, we modified the procedure described above.” left out

CXCR2 [2] = target: T1, CXCR2; test: Live cell NanoBRET saturation binding (HEK293T cells expressing CXCR2_Nluc)
Protocol: HEK293T cells were transfected with the plasmid (5.5 μg) for CXCR2_Nluc using polyethylenimine (PEI) as transfection reagent (PEI/DNA ratio 3:1). After 24 h at 37 °C and 5% CO2, the cells were detached with DMEM and transferred to a white F-bottom 384-well plate (10,000 cells/well), which was coated with 5 μL/well poly-D-lysine (0.1 mg/mL, dissolved in water), and incubated for further 24 h at 37 °C and 5% CO2. Subsequently, the cells were washed with phosphate-buffered saline (Gibco DPBS, with CaCl2 and MgCl2). The assay medium (Gibco DMEM/F12, 15 mM HEPES, no phenol red supplemented with 5% FBS) was added and the cells were incubated at 37 °C for 30 min. […]
After 120 min of incubation at 37 °C, 5 μL of a furimazine solution (final assay dilution: 1:2500, diluted with assay medium) was added. Subsequent to a further incubation of 5 min in the dark at 37 °C, BRET ratios were measured with a CLARIOstar microplate reader using 620/10 and 475/30 nm emission filters. Total, nonspecific and specific binding, which was calculated as a difference of total and nonspecific binding, were analyzed using the algorithms for one-site saturation binding in PRISM9.5 (GraphPad). To determine the inhibition constants (Ki) of the potential competitors, data were normalized to total and nonspecific binding and analyzed using the one-site-fit Ki equation in PRISM9.5 (GraphPad).

- Kd (CXCR2 [1]): 4.17 ± 0.8 nM
- binding to CCR2 (CCR2): no significant binding
- Kd (CXCR2 [2]; live HEK293T cells transiently expressing CXCR2_Nluc, 37 °C, read-out: Kd (equilibrium saturation binding)): 0.25 ± 0.01 nM
- passage of the cell membrane (CXCR2 [2]; live HEK293T cells, inferred from cellular binding): able to pass the cell membrane
SMILES: Cc1ccc([C@H](Nc2c(Nc3cccc(C(=O)NCc4cn(CCOCCOCCOCCNC(=O)c5ccc(C(=O)[O-])c(-c6c7ccc(=[N+](C)C)cc-7oc7cc(N(C)C)ccc67)c5)nn4)c3O)c(=O)c2=O)C(C)(C)C)o1 [9a, (R)-4-((2-(2-(2-(2-(4-((3-((2-((2,2-Dimethyl-1-(5-methylfuran-2-yl)propyl)amino)-3,4-dioxocyclobut-1-en-1-yl)amino)-2-hydroxybenzamido)methyl)-1H-1,2,3-triazol-1-yl)ethoxy)ethoxy)ethoxy)ethyl)carbamoyl)-2-(6-(dimethylamino)-3-(dimethyliminio)-3H-xanthen-9-yl)benzoate]
